In test [1] the test system is forelimb function lost after freezing damage-induced brain injury. In words: Recovery by training of forelimb function lost after freezing damage-induced brain injury. It counts as in vivo, C57BL/6J mice. The settings on record: mice, oral twice a day 30 mg/kg/time plus training 30 min/day, evaluated 21-49 days after damage, compared to the other groups (control, Compound A without training, training only), FIG. 1. The protocol: Action of enhancing the recovery effect obtained by training the forelimb function lost after freezing damage-induced brain injury was examined. A test was performed using the following method, by referring to the method described in Journal of Neuroscience Methods, Vol. 193, Issue 1, Pages 82-85 (2010) and Nature, Vol. 462, Issue 7275, Pages 915-919 (2009). Six-week-old male C57BL/6J mice (Charles River Japan) were used in the test. The mice were raised in an environment in which they had free access to feed and water, under a light-dark cycle of 12 hours (light period: 7:00-19:00, dark period: 19:00-7:00). The mice were randomly assigned to the groups. [table] An acrylic rectangular enclosure (length×width×height; 15×8.5×20 cm) in which only the front face of the four faces was transparent, and the other three faces were black was used. A slit measuring 0.5 cm in width×13 cm in height was formed on the right side of the front face when seen from the front. A transparent acrylic plate measuring 8.5 cm in width×1.25 cm in height was used as the feed plate. Diced almonds (K's Factory, Co., Ltd.) were used as the feed for use in the evaluation. […] A case where a mouse was able to extend the left forelimb through the slit, and carry the diced almond into the mouth without dropping it was determined to be successful. […]

Test [2] deals with upper limb function lost after brain injury. In words: Recovery by rehabilitation-like training of upper limb function lost after brain injury (internal capsule hemorrhage cynomolgus monkey models). It counts as in vivo, cynomolgus monkeys. The conditions noted are these: 1 animal. From the text:
Test Example 3 Action of enhancing the recovery effect obtained with rehabilitation-like training of the upper limb function lost after brain injury was examined, using internal capsule hemorrhage cynomolgus monkey models.
Two male cynomolgus monkeys (Tsukuba Primate Research Center, National Institute of Biomedical Innovation) were used in the test. The cynomolgus monkeys were raised in a breeding cage for old world monkeys (length×width×height; 79×47×80 cm) in which they had free access to feed and water, under a light-dark cycle of 12 hours (light period: 7:00-19:00 dark period: 19:00-7:00).
Motor learning and an upper limb function evaluation were performed by making the cynomolgus monkeys take feed provided in front of the breeding cage. A 3.5- or 7 mm square piece of apple was used as the feed for use in the evaluation.
In order to allow the cynomolgus monkeys to acclimate to the testing apparatus, and determine the dominant hand of each of the individuals, a 7 mm square piece of apple attached to a needle tip was provided in the center of the front face of the cage, and the behavior of the cynomolgus monkey taking the feed was observed. The hand more often used in a total of 150 trials (30 trials a day for 5 days) was determined as its dominant hand. […]

The test system of test [3] is forelimb function lost after internal capsule hemorrhage-induced brain injury. In words: Recovery by training of forelimb function lost after internal capsule hemorrhage-induced brain injury (mouse models). The test is classed as in vivo, C57BL/6J mice. The settings on record: mice, oral once a day 20 mg/kg/time plus training 30 min/day, evaluated 31-63 days after induction, compared to trained control group, FIG. 2. The protocol: Action of enhancing the recovery effect obtained by training the forelimb function lost after internal capsule hemorrhage-induced brain injury was examined, using internal capsule hemorrhage mouse models. A test was carried out using the following method, by referring to Plos One, Vol. 8, e67691 (2013) and Behav Brain Res., Vol. 20, Issue 225, Pages 126-34 (2011). Six-week-old male C57BL/6J mice (Charles River Japan) were used in the test. The mice were raised in an environment in which they had free access to feed and water, under a light-dark cycle of 12 hours (light period: 7:00-19:00, dark period: 19:00-7:00). The mice were randomly assigned to the groups. [table] An acrylic rectangular enclosure (length×width×height; 15×8.5×20 cm) in which only the front face of the four faces was transparent, and the other three faces were black was used. A slit measuring 0.5 cm in width×13 cm in height was formed on the right side of the front face when seen from the front. A transparent acrylic plate measuring 8.5 cm in width×1.25 cm in height was used as the feed plate. Diced almonds (K's Factory, Co., Ltd.) were used as the feed for use in the evaluation. […] A case where a mouse was able to extend the left forelimb through the slit, and carry the diced almond into the mouth without dropping it was determined to be successful. […]

The record followed here is patent publication US10471044B2, “Post nerve injury rehabilitation effect-enhancing agent comprising alkyl ether derivative or salt thereof” (FUJIFILM Toyama Chemical Co., Ltd., priority 2014, dated 2019).

`OC1CN(CCCOCCc2ccc3sccc3c2)C1` [Compound A, 1-(3-(2-(1-benzothiophen-5-yl)ethoxy)propyl)azetidin-3-ol]: the “relative recovery rate (success rate of taking feed with left forelimb)” value in test [1] is listed as “much higher relative recovery rate within a short period”; in test [3], “much higher relative recovery rate”. For the same molecule, the “recovery after the brain injury (upper limb function)” value in test [2] (intramuscular once a day 3 mg/kg/time plus rehabilitation-like training, versus trained animal without Compound A (recovery limited)) is on record as “remarkable tendency to recovery was observed”. Also, the accurate grasping entry in test [2] (intramuscular once a day 3 mg/kg/time, after the beginning of the rehabilitation-like training, not observed in animal without Compound A) was “accurate grasping similar to that before the brain injury was observed”.
